Laboratory results: patent publication US7468439B2, “Alkylene bridged sultam compounds useful as modulators of nuclear hormone receptor function” (Bristol-Myers Squibb Company, priority 2006, dated 2008)

Columns and labels:
[1] = molecular target: T1, AR (Rattus norvegicus, UniProt P15207)
T1 sequence (P15207 1-902): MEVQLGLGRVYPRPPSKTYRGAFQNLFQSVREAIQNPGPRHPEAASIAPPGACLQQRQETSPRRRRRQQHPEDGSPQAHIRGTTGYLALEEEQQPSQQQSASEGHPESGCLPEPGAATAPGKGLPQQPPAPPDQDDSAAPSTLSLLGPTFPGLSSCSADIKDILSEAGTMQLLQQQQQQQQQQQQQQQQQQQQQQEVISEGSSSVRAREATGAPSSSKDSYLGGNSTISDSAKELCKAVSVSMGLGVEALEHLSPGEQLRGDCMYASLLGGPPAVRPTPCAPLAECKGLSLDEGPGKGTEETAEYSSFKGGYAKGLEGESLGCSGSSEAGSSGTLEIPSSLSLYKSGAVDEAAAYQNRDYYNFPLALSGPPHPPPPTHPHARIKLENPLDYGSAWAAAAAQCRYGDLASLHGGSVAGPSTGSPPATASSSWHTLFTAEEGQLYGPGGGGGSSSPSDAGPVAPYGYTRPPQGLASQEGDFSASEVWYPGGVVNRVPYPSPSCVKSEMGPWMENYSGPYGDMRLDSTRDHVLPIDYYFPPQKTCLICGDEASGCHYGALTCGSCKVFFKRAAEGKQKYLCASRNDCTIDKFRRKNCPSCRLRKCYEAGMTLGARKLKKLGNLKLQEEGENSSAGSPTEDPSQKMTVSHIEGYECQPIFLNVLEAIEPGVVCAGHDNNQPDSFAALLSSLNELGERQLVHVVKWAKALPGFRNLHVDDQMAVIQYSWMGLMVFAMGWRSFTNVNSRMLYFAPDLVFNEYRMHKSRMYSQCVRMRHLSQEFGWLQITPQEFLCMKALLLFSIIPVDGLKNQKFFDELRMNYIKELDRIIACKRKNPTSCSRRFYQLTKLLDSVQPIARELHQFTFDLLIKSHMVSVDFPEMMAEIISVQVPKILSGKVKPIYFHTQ

[2] = stability of the isolated material on storage; type: physicochemical
[3] = serum T and DHT concentrations after subcutaneous injection; conditions: over 24 hours
[4] = molecular target: wild type AR; conditions: read-out: Kd for [^3H]-DHT; MDA 453 cells (wild type AR), saturation analysis, Scatchard
Procedure: For the saturation analysis, the difference between the total binding and the non-specific binding, is defined as specific binding.
Two replicates are used for each sample. After 4 hours at 37° C., cells are washed, harvested, and counted as described above. […] The K1 values are determined by application of the Cheng-Prusoff equation to the IC50 values, where:
[formula] After correcting for non-specific binding, IC50 values are determined. […] Murine Breast Cell Proliferation Assay

With CCC(=O)O[C@H]1CC[C@H]2[C@@H]3CCC4=CC(=O)CC[C@]4(C)[C@H]3CC[C@]12C [TP, testosterone propionate] the “potency relative to free T” value ([1]; higher potency than free T) was 10-30 fold, the ED80 ([1]; immature castrated rat model, weights of VP and SV) was 0.1 mg and the “EC50 (increase in organ weight, VP and SV)” value ([1]; immature castrated rats, dosing for 3 days) was ~0.03 mg.
For N#Cc1ccc(N2C[C@H]3[C@H]4CC[C@H](C4)[C@@]3(COS(=O)(=O)C(F)(F)F)S2(=O)=O)cc1C(F)(F)F [Example 61, ((1R,2R,6R,7S)-4-(4-cyano-3-(trifluoromethyl)phenyl)-3,3-dioxido-3-thia-4-azatricyclo[5.2.1.0^2,6]dec-2-yl)methyl trifluoromethanesulfonate], the stability ([2]; under an inert atmosphere, unpurified material) was “stable for several weeks under an inert atmosphere”.
In the case of C[C@]12CC[C@H]3[C@@H](CCC4=CC(=O)CC[C@@]43C)[C@@H]1CC[C@@H]2O [T, testosterone], the “course of serum concentrations of T and DHT” value [3] is reported as “decline very rapidly”.
In the case of N#Cc1ccc(N2C[C@H]3[C@H]4CC[C@H](C4)[C@@]3(CN=[N+]=[N-])S2(=O)=O)cc1C(F)(F)F [Example 65, 4-((1R,2R,6R,7S)-2-(azidomethyl)-3,3-dioxido-3-thia-4-azatricyclo[5.2.1.0^2,6]dec-4-yl)-2-(trifluoromethyl)benzonitrile], the stability ([2]; ambient conditions) is reported as “prone to decomposition under ambient conditions”.
In the case of “tritiated dihydrotestosterone [[^3H]-DHT]”, the Kd [4] is reported as 0.7 nM.
